How the values were obtained:
[1] = tested on: K562 cells; assay: Growth of K562 single cell colonies in microfluidic trap array in the presence of Imatinib; format: cell-based; details: K562 cells grown with 0.1 μM, 0.3 μM, 0.5 μM Imatinib or control; FIG. 20
Source text: (§1) Cells were introduced to the array and transferred to the interior chambers with a gentle trap and transfer technique that is similar to previously reported methods (Dura, et al. (2014), “Deformability-based microfluidic cell pairing and fusion”, Lab. Chip 14:2783). Specifically, we first captured cells at the entrance of the traps, and next transferred the cells into the chambers with a brief pressure burst, causing the cells to squeeze through the narrow constrictions and move into the interior chambers. The widths of the constrictions were adjusted in the range of 3-6 microns, depending on the cell type the device was designed to capture. […] Flow control was achieved by adjusting negative pressure at the outlet, which allowed cells to be pipetted directly in the inlet reservoir with minimal losses from dead volume. Additionally, this approach allowed us to wash the cells from the inlet reservoir once the array was fully populated. […]
(§2) Cells were imaged twice per day and immediately returned to the incubator after each imaging cycle, requiring around 5-10 minutes for each chip. After 7 days, the imaging dataset was analyzed by custom computer vision software written in Python using a pre-trained Mask_RCNN image segmentation model. […]

[2] = tested on: MOLM 13 cells; assay: Growth of MOLM 13 cells in microfluidic chambers in the presence of Quizartinib; format: cell-based; details: drug vs control medium, images FIG. 22A/22B
Source text: as §1, §2

| SMILES | growth rate distribution of colonies [1] | outgrowth of clones in the presence of the drug [2] |
| --- | --- | --- |
| Cc1ccc(NC(=O)c2ccc(CN3CCN(C)CC3)cc2)cc1Nc1nccc(-c2cccnc2)n1 [Imatinib] | decreased growth rate with increasing drug concentration | – |
| CC(C)(C)c1cc(NC(=O)Nc2ccc(-c3cn4c(n3)sc3cc(OCCN5CCOCC5)ccc34)cc2)no1 [Quizartinib] | – | A single clone is observed to grow out in the presence of the drug |

Source: patent US20210114029A1, “DEVICES, SYSTEMS, AND METHODS FOR HIGH THROUGHPUT SINGLE CELL ANALYSIS” (Duke University, priority 2017, published 2021)
